Measured values: patent US20190030042A1, “Method for Treating Dementia with Lewy Bodies” (BrainX CORPORATION, priority 2017, published 2019)

Tested on: DLB rats
Assay: Object recognition test in DLB rats
Format: in vivo, rat
Details: group A3, 100 mg/kg/day IP for 27 days, test on 27th day, p<0.05
Experimental: Saline is also used to be administrated to the normal rats of group A1.
Recognition ability of the rats of groups A1-A3 is measured using the object recognition test (Ho et al., Behav Brain Res 268: 177-184, 2014). Specifically, on the 25th & 26th day, the rat “M” under the test is placed in an open box, shown as FIG. 2a, for 5 minutes. Three flavorless objects (objects O1, O2 & O3) with the same size, color, shape and material are respectively fixed at three corners of the open box.
On the 27th day, the rat “M” under the test is first placed in the open box shown as FIG. 2a, and the time spent exploring the object O1 (T01) and the total time spent exploring the objects O1, O2 & O3 (TO1+O2+O3) are recorded, respectively. The percentage of the exploration time spent on the object O1 is calculated as (TO1/TO1+O2+O3)*100%. After 5 minutes, a novel object O4 with different size, color, shape and material is used to replace the object O1 (shown in FIG. 2b), and the rat “M” under the test is placed in the open box. The time spent exploring the novel object O4 (TO4) and the total time spent exploring the objects O2 & O3 and the novel object O4 (TO2+O3+O4) are respectively recorded, and the percentage of the exploration time spent on the novel object O4 is calculated as (TO4/TO2+O3+O4)*100%.

CO/N=C(\C(=O)N[C@@H]1C(=O)N2C(C(=O)O)=C(CSc3nc(=O)c(=O)[nH]n3C)CS[C@H]12)c1csc(N)n1 [ceftriaxone]
recognition of the novel object O4 (percentage of time exploring object): can recognize the novel object O4
